Tests used:
[1] = system: SEM cells; assay: cell viability relative to DMSO control; higher = less cytotoxic; conditions: HPLM + 10% dialyzed FBS, 48 h
How it was run: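 NOMO1 or SEM cells were plated at 500 cells/well and P12-Ichikawa cells at 1000 cells/well in 1536-well plates (5 μl), after each leukemia line had been adapted for at least four passages in each medium. Pin dosing delivered library compounds in DMSO at 11 threefold concentrations, 47 μM to 0.79 nM. CellTiter-Glo One luminescence was read after 48 h at 37°C. Viability is reported as a per-plate percentage of DMSO wells, with cell-free wells as background.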

[2] = system: NOMO1; assay: AUC of viability dose-response curve (% viability x log10 dose units); higher = less sensitive; conditions: 48 h
How it was run: (§1)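 Medium-adapted leukemia cells in 1536-well plates, at 500 or 1000 cells/well, were incubated for 48 h at 37°C with library compounds in DMSO at 11 threefold doses from 47 μM to 0.79 nM. CellTiter-Glo One luminescence normalised per plate to DMSO and cell-free wells was fitted with a four-parameter log-logistic model over log10 doses. Area under the curve was integrated from this fit by trapezoidal rule, with curves beyond full viability scaled and failed quality-control curves removed.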

[3] = system: P12-Ichikawa; assay: as above; conditions: 48 h
How it was run: as §1

[4] = system: SEM cells; assay: as above; conditions: 48 h
How it was run: as §1

COC(=O)/C=C/C(=O)OC
Conditions | AUC of viability dose-response curve | cell viability [%]
[1], 0.000781 µM | – | 118
[1], 0.00234 µM | – | 126
[1], 0.00702 µM | – | 106
[1], 0.0211 µM | – | 119
[1], 0.0632 µM | – | 135
[1], 0.19 µM | – | 135
[1], 0.569 µM | – | 126
[1], 1.71 µM | – | 124
[1], 5.12 µM | – | 60
[1], 15.4 µM | – | 43.8
[1], 46.1 µM | – | 43.3
[2], HPLM + 10% dialyzed FBS | 433 | –
[2], RPMI 5 mM glucose + 10% FBS | 402 | –
[2], RPMI 5 mM glucose + 10% dialyzed FBS | 413 | –
[3], HPLM + 10% dialyzed FBS | 323 | –
[3], RPMI 5 mM glucose + 10% FBS | 368 | –
[3], RPMI 5 mM glucose + 10% dialyzed FBS | 352 | –
[4], HPLM + 10% dialyzed FBS | 406 | –
[4], RPMI 5 mM glucose + 10% FBS | 354 | –
[4], RPMI 5 mM glucose + 10% dialyzed FBS | 376 | –

Source: the supplement of paper PMC11451515
